The structures appear in SMILES notation. Activity calls are given as the source filed them. No cut-off for these calls is given here. Where only a bound is given, the exact number is not on record here.

The target of data set [1] is T1, UDP-galactopyranose mutase (Mycobacterium tuberculosis, UniProt P9WIQ1). In words: Inhibition of His6-tagged Mycobacterium tuberculosis reduced UDP-galactopyranose mutase expressed in Escherichia coli BL21 assessed as reduction in UDPGalf production using UDPGalp as substrate by HPLC analysis.
Data set [2] addresses T1, UDP-galactopyranose mutase. Kind of data set: Inhibition of His6-tagged Mycobacterium tuberculosis reduced UDP-galactopyranose mutase expressed in Escherichia coli BL21 assessed as reduction in UDPGalf production using UDPGalp as substrate in presence of TritonX100 by HPLC analysis.
Data set [3] deals with UDP-galactopyranose mutase (Mycobacterium tuberculosis) (UniProt P9WIQ1). In words: Binding affinity to His6-tagged Mycobacterium tuberculosis UDP-galactopyranose mutase expressed in Escherichia coli BL21 assessed as change melting temperature up to 600 uM in presence of Sypro Orange by thermal shift assay.
Data set [4] shares this target. Kind of data set: Binding affinity to His6-tagged Mycobacterium tuberculosis reduced UDP-galactopyranose mutase expressed in Escherichia coli BL21 assessed as increase in corrected fluorescence intensity at 100 to 1000 uM in presence of ANS by fluorescence-based binding assay. The conditions noted are these: dose 100-1000 µM.
The target is the same in data set [5]. Kind of data set: Binding affinity to His6-tagged Mycobacterium tuberculosis UDP-galactopyranose mutase expressed in Escherichia coli BL21 assessed as change melting temperature at 20 uM in presence of Sypro Orange by thermal shift assay.
For data set [6] the target is unchanged. In words: Binding affinity to His6-tagged Mycobacterium tuberculosis reduced UDP-galactopyranose mutase expressed in Escherichia coli BL21 assessed as increase in corrected fluorescence intensity using UDP-Galp as substrate at 100 to 1000 uM in presence of ANS by fluorescence-based binding assay. Conditions: dose 100-1000 µM.
Data set [7] concerns the target T1, UDP-galactopyranose mutase. In words: Inhibition of Mycobacterium tuberculosis UDP-galactopyranose mutase expressed in Escherichia coli BL21 using […] as substrate by Dixon plot analysis.
The nature of data set [8]: Aggregation property of compound in PBS at pH 7 assessed as critical aggregation concentration by DLS assay. Type of data set: physicochemical. Conditions: buffer.
The target of data set [9] is UDP-galactopyranose mutase (Mycobacterium tuberculosis) (UniProt P9WIQ1). Kind of data set: Binding affinity to His6-tagged Mycobacterium tuberculosis UDP-galactopyranose mutase expressed in Escherichia coli BL21 assessed as increase in melting temperature using UDP-Galp as substrate at < 100 uM in presence of Sypro Orange by thermal shift assay.
Data set [10] has the same target. In words: Binding affinity to His6-tagged Mycobacterium tuberculosis UDP-galactopyranose mutase expressed in Escherichia coli BL21 assessed as decrease in melting temperature at 800 to 1000 uM in presence of Sypro Orange by thermal shift assay. Conditions: dose 800-1000 µM.
Data set [11] is described as follows: Aggregation property of compound in PBS at pH 7 at 80 uM by DLS assay. In kind it is physicochemical. The conditions noted are these: buffer, pH 7, 80 µM.
For data set [12], the target named is T1, UDP-galactopyranose mutase. Kind of data set: Inhibition of Mycobacterium tuberculosis UDP-galactopyranose mutase expressed in Escherichia coli BL21 using […] as substrate by cornish-bowden plot analysis.
Data set [13] concerns the target UDP-galactopyranose mutase (Mycobacterium tuberculosis) (UniProt P9WIQ1). Kind of data set: Binding affinity to His6-tagged Mycobacterium tuberculosis UDP-galactopyranose mutase expressed in Escherichia coli BL21 assessed as decrease in melting temperature using UDP-Galp as substrate at 100 to 400 uM in presence of Sypro Orange by thermal shift assay. The conditions noted are these: dose 100-400 µM.

For data set [14] the target is unchanged. In words: Binding affinity to His6-tagged Mycobacterium tuberculosis UDP-galactopyranose mutase expressed in Escherichia coli BL21 assessed as increase in melting temperature using UDP-Galp as substrate at 600 to 800 uM in presence of Sypro Orange by thermal shift assay. Conditions: dose 600-800 µM.
Data set [15] deals with T1, UDP-galactopyranose mutase. In words: Inhibition of His6-tagged Mycobacterium tuberculosis UDP-galactopyranose mutase expressed in Escherichia coli BL21 using […] as substrate by Dixon plot analysis.

Chain of UDP-galactopyranose mutase (Mycobacterium tuberculosis) (P9WIQ1 whole entry, looked up): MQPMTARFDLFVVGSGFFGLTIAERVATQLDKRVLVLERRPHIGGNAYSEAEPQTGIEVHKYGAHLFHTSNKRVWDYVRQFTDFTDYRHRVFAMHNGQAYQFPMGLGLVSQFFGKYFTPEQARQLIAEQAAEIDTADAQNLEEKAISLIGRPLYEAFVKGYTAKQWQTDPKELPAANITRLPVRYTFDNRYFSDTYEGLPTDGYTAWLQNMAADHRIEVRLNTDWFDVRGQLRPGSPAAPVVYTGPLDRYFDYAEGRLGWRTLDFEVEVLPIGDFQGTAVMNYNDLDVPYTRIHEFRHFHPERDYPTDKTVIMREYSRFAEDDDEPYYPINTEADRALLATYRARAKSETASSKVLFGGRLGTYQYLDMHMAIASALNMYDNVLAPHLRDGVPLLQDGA
T1 sequence (P9WIQ1 whole entry): as the sequence (P9WIQ1 whole entry, looked up) above

Turning to `Cc1nn(-c2ccc(Cl)cc2)c(O)c1C(=O)c1ccccc1`, the IC50 came out at 610 µM in data set [1] and 1.51 mM in data set [2].

On to `Cc1[nH]n(-c2ccc(Cl)cc2)c(=O)c1C(=O)c1ccc(Cl)cc1`, for which the result in [3] was inactive. Besides, the outcome in data set [4], in data set [6], in [9], in data set [10], in [13] and in data set [14] was Active. The ΔTm in data set [5] worked out at 5 °C. In addition, the Ki in data set [7] was around 135 µM; in [12] it was around 400 µM. Also, the CAC in [8] is above 50 µM. The IC50 in data set [1] worked out at 880 µM; in data set [2], 0.59 mM. Further, in [11], the result was Active.

Regarding `Cc1nn(-c2ccc(Cl)cc2)c(O)c1S(=O)(=O)c1ccc(Cl)cc1`, the values for the IC50 in data set [1] and in data set [2] were 225 µM and 4.34 mM, respectively.

Consider `Cc1cc(OC(=O)c2ccc(S(N)(=O)=O)cc2)n(-c2ccc(Cl)cc2)n1`, for which the IC50 in [1] amounted to 500 µM; in [2] it was 1.13 mM. The same compound showed a Ki in [15] of around 51 µM.

On to `OC(c1ccc(Cl)cc1)c1cn(-c2ccc(Cl)cc2)nn1` (stereo not given), for which the figures for the IC50 in data set [1] and in data set [2] were 150 µM and 2.71 mM, respectively.

Consider `O=C(CCc1cn(-c2ccc(Cl)cc2)nn1)Oc1ccc(Cl)cc1`, for which the figures for the IC50 in data set [1] and in data set [2] were 530 µM and 1.26 mM, respectively.

Values taken from ChEMBL document CHEMBL5370588, “Unraveling the unexpected aggregation behavior of Pyrazole-Based compounds Targeting Mycobacterium tuberculosis UDP-Galactopyranose mutase” (Bioorg Med Chem, 2023).
